Measured values from ChEMBL document CHEMBL5537142 (Eur J Med Chem, 2024).
Values after ≈ are worked out from the molar mass of the structure shown. Active and inactive are the calls of the source. The calls are words filed in the database; no cut-off is given here.

Legend:
[1] = Solubility of compound incubated for 5 mins by absorbance based assay; assay type: physicochemical
[2] = test system: MDA-MB-468; assay: Inhibition of cell viability in human MDA-MB-468 cells at 100 uM incubated for 72 hrs by resazurin based assay; assay type: functional
[3] = test system: MDA-MB-231; assay: Inhibition of cell viability in human MDA-MB-231 cells at 100 uM incubated for 72 hrs by resazurin based assay; assay type: functional
[4] = test system: MCF7; assay: Induction of cell death in human MCF7 cells at 0.05 to 200 uM incubated for 72 hrs by resazurin based assay; assay type: functional; conditions: dose 0.05-200 µM
[5] = test system: MDA-MB-468; assay: Induction of cell death in human MDA-MB-468 cells at 0.05 to 200 uM incubated for 72 hrs by resazurin based assay; assay type: functional; conditions: dose 0.05-200 µM
[6] = test system: MCF7; assay: Inhibition of cell viability in human MCF7 cells at 100 uM incubated for 72 hrs by resazurin based assay; assay type: functional
[7] = test system: MDA-MB-231; assay: Induction of cell death in human MDA-MB-231 cells at 0.05 to 200 uM incubated for 72 hrs by resazurin based assay; assay type: functional; conditions: dose 0.05-200 µM
[8] = molecular target: T1, Dihydrofolate reductase (Homo sapiens) (UniProt P00374); conditions: MDA-MB-468, dose 10.0 nM, time 24.0 hrs
T1 sequence (whole entry): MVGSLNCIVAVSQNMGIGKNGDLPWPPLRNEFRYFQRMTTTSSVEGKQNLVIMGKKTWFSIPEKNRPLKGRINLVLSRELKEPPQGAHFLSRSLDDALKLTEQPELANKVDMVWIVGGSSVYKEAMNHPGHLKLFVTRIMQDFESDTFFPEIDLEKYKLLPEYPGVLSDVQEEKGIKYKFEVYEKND

[9] = test system: MCF7; assay: Inhibition of cell viability in human MCF7 cells upto 100 uM incubated for 72 hrs by resazurin based assay relative to control; assay type: functional; conditions: up to 100 µM
[10] = molecular target: T1, Dihydrofolate reductase (Homo sapiens); conditions: MDA-MB-468, dose 1.0 nM, time 24.0 hrs
[11] = test system: MDA-MB-468; assay: Cytotoxicity against human MDA-MB-468 cells assessed as cell viability at 100 uM incubated for 72 hrs by resazurin based assay relative to control; assay type: functional; conditions: read-out: Activity
[12] = test system: MDA-MB-231; assay: Inhibition of cell viability in human MDA-MB-231 cells upto 100 uM incubated for 72 hrs by resazurin based assay relative to control; assay type: functional; conditions: up to 100 µM
[13] = test system: MCF7; assay: Cytotoxicity against human MCF7 cells assessed as cell viability at 100 uM incubated for 72 hrs by resazurin based assay relative to control; assay type: functional; conditions: read-out: Activity
[14] = test system: MDA-MB-468; assay: Inhibition of cell viability in human MDA-MB-468 cells upto 100 uM incubated for 72 hrs by resazurin based assay relative to control; assay type: functional; conditions: up to 100 µM
[15] = test system: MDA-MB-231; assay: Cytotoxicity against human MDA-MB-231 cells assessed as cell viability at 100 uM incubated for 72 hrs by resazurin based assay relative to control; assay type: functional; conditions: read-out: Activity

Row | solubility at 5 min [1] | Compound | inhibition [2] | inhibition [3] | inhibition [6] | also measured
1 | > 100 µM | COc1cc(-c2cnc(N)nc2N)ccc1C |  |  |  | 
2 |  | CC(C)(C)c1ccc(-c2cnc(N)nc2N)cc1 | Active |  |  | 
3 | > 100 µM | Nc1ncc(-c2ccc(N3CCCC3)c([N+](=O)[O-])c2)c(N)n1 | Active | Active | Active | Activity [4]: Active; Activity [5]: Active; Activity [7]: Active
4 | ~10 µM (≈ 3.5 µg/mL) | CN(Cc1ccccc1)c1ccc(-c2cnc(N)nc2N)cc1[N+](=O)[O-] |  |  | inactive | 
5 | > 100 µM | Nc1ncc(-c2ccc(Cl)c([N+](=O)[O-])c2)c(N)n1 |  |  |  | 
6 | > 100 µM | Nc1ncc(-c2cccc(Cl)c2)c(N)n1 |  |  |  | 
7 |  | Nc1ncc(-c2ccc(F)cc2Br)c(N)n1 | inactive | inactive | inactive | 
8 | > 100 µM | Nc1ncc(-c2ccc(Cl)c(Cl)c2)c(N)n1 |  |  |  | 
9 | ~10 µM (≈ 3.66 µg/mL) | COc1ccc(CNc2ccc(-c3cnc(N)nc3N)cc2[N+](=O)[O-])cc1 | Active | Active | Active | Activity [4]: Active; Activity [5]: Active; Activity [7]: Active
10 | > 100 µM | CC(C)c1ccc(-c2cnc(N)nc2N)cc1 |  |  | inactive | 
11 |  | Cc1ccc(-c2cnc(N)nc2N)cc1 |  |  | inactive | 
12 | > 100 µM | NCCCCCCNc1ccc(-c2cnc(N)nc2N)cc1[N+](=O)[O-] | Active | Active | Active | Activity [4]: Active; Activity [5]: Active; Activity [7]: Active
13 | > 100 µM | Nc1ncc(-c2ccc3ccccc3c2)c(N)n1 | Active | Active | Active | Activity [4]: Active; Activity [5]: Active; Activity [7]: Active
14 |  | Nc1ncc(-c2ccc(Cl)c(F)c2)c(N)n1 |  |  | inactive | 

Row | Compound | solubility at 5 min [1] | inhibition [2] | inhibition [3] | inhibition [6] | also measured
15 | CCc1nc(N)nc(N)c1-c1ccc(Cl)cc1 [PYRIMETHAMINE] | > 100 µM |  |  |  | inhibition [8]: Active; inhibition (INH) [9]: ~50%; inhibition [10]: 40%; viability at 100 µM [11]: ~50%; inhibition (INH) [12]: ~50%; viability at 100 µM [13]: ~50%; inhibition (INH) [14]: ~50%; viability at 100 µM [15]: ~50%
